One data set has as its system HCV replicon. Put plainly: microbe, parasite or virus in culture. The data set is classed as cell-based. The conditions noted are these: Hepatitis C virus, 48 h.

The structures appear in SMILES notation. Read-outs that look alike come from different tables or passages of the source. Where only a bound is given, the exact number is not on record here.

By melting point is commonly meant the temperature of the solid-liquid transition. Molecule `CCn1c(-c2ccc(NS(=O)(=O)C(C)C)cc2)c(C#N)c2ccc(OC)cc21` [Compound 88] had a melting point of 209 to 213 °C. In addition, the IC50 with HCV replicon (read-out: Replicon IC5Os μM) fell in the range of 0.5 to 2 µM.
As to `CCn1c(C#Cc2ccccc2)c(C#N)c2ccc(C(N)=O)cc21` [Compound 94], the melting point was in the range of 262 to 265 °C. In addition, the IC50 in the data set on HCV replicon (read-out: Replicon IC5Os μM) was in the range of 0.5 to 2 µM.
`CCn1c(C#Cc2cccc(OC)c2)c(C#N)c2ccc(C(N)=O)cc21` [Compound 95]: the melting point fell in the range of 248 to 251 °C. In addition, the IC50 in the data set on HCV replicon (read-out: Replicon IC5Os μM) fell in the range of 0.5 to 2 µM.
For `CCn1c(C#Cc2ccc(N)cc2)c(C#N)c2ccc(C(N)=O)cc21` [Compound 96] the same measures were 243 to 250 °C and 0.5 to 2 µM.
For `COc1ccc(-n2cc(C#N)c3ccc(Cl)cc32)cc1` [Compound 119] the same measures were 126 to 128 °C and 0.5 to 2 µM.
For `CCn1c(C#Cc2ccc(NS(=O)(=O)CC)cc2)c(C#N)c2ccc(OC)cc21` [Compound 131] the same measures were 199 to 204 °C and 0.5 to 2 µM.
`CCn1c(C#Cc2ccc(NS(=O)(=O)C(C)C)cc2)c(C#N)c2ccc(OC)cc21` [Compound 132] showed a melting point of 209 to 212 °C. Moreover, the IC50 with HCV replicon (read-out: Replicon IC5Os μM) was in the range of 0.5 to 2 µM.
In the same order, the values of `CCn1c(C#Cc2ccccc2Cl)c(C#N)c2ccc(OC)cc21` [Compound 134] are 155 to 157 °C and 0.5 to 2 µM.
In turn, `CCn1c(C#Cc2ccc(NC(=O)COC)cc2)c(C#N)c2ccc(OC)cc21` [Compound 139] yielded a melting point of 191 to 195 °C. Further, in the data set on HCV replicon (read-out: Replicon IC5Os μM), the IC50 was 0.5 to 2 µM.
`CCn1c(C#Cc2cccc(C)c2)c(C#N)c2ccc(OC)cc21` [Compound 144] registered a melting point of 97 to 100 °C. Moreover, the IC50 with HCV replicon (read-out: Replicon IC5Os μM) lay within 0.5 to 2 µM.
In the same order, the values of `CCn1c(C#Cc2ccc(C(C)(C)C)cc2)c(C#N)c2ccc(OC)cc21` [Compound 145] are 110 to 113 °C and 0.5 to 2 µM.
`CCn1c(C#Cc2ccc(NC(=O)C3CCC3)cc2)c(C#N)c2ccc(OC)cc21` [Compound 153] came in with a melting point of 225 to 228 °C. The IC50 in the data set on HCV replicon (read-out: Replicon IC5Os μM) lay within 0.5 to 2 µM.
The molecule `CCn1c(C#Cc2ccc(CC#N)cc2)c(C#N)c2ccc(OC)cc21` [Compound 161] registered a melting point of 174 to 176 °C. Moreover, the IC50 with HCV replicon (read-out: Replicon IC5Os μM) fell in the range of 0.5 to 2 µM.
`CCn1c(C#Cc2ccc(O)cc2)c(C#N)c2ccc(OC)cc21` [Compound 172] returned a melting point of 221 to 223 °C. In addition, in the data set on HCV replicon (read-out: Replicon IC5Os μM), the IC50 is 0.5 to 2 µM.
For `CCn1c(C#Cc2cccc(N)c2)c(C#N)c2ccc(OC)cc21` [Compound 173] the same measures were 150 to 153 °C and 0.5 to 2 µM.
For the molecule `CCn1c(C#Cc2ccc3c(c2)OCCO3)c(C#N)c2ccc(OC)cc21` [Compound 175], the melting point was in the range of 132 to 135 °C. Moreover, the IC50 in the data set on HCV replicon (read-out: Replicon IC5Os μM) lay within 0.5 to 2 µM.
In the same order, the values of `CCn1c(C#Cc2ccc(C(F)(F)F)cc2)c(C#N)c2ccc(O)cc21` [Compound 185] are 157 to 160 °C and 0.5 to 2 µM.
For `CCn1c(C#Cc2ccccc2)c(C#N)c2ccc(O)cc21` [Compound 188] the same measures were 209 to 212 °C and 0.5 to 2 µM.
For `CCn1c(C#Cc2cccc(O)c2)c(C#N)c2ccc(C(F)(F)F)cc21` [Compound 196] the same measures were 187 to 189 °C and 0.5 to 2 µM.
Regarding `CCn1c(C#Cc2ccc(N)cc2)c(C#N)c2ccc(C(F)(F)F)cc21` [Compound 200], the melting point was 187 to 189 °C. Further, in the data set on HCV replicon (read-out: Replicon IC5Os μM), the IC50 lay within 0.5 to 2 µM.
In the same order, the values of `CCn1c(C#Cc2ccc(N(C)C)cc2)c(C#N)c2ccc(C(F)(F)F)cc21` [Compound 201] are 147 to 150 °C and 0.5 to 2 µM.
In the same order, the values of `CCn1c(C#Cc2cccc(NC(C)=O)c2)c(C#N)c2ccc(OC)cc21` [Compound 205] are 181 to 184 °C and 0.5 to 2 µM.
Molecule `CCC(=O)Nc1cccc(C#Cc2c(C#N)c3ccc(OC)cc3n2CC)c1` [Compound 206] yielded a melting point of 187 to 191 °C. Besides, the IC50 with HCV replicon (read-out: Replicon IC5Os μM) lay within 0.5 to 2 µM.
In the same order, the values of `CCn1c(C#Cc2cccc(NC(=O)C(C)C)c2)c(C#N)c2ccc(OC)cc21` [Compound 207] are 179 to 183 °C and 0.5 to 2 µM.
In the case of `CCn1c(C#Cc2cccc(NC(=O)C3CC3)c2)c(C#N)c2ccc(OC)cc21` [Compound 211], the melting point lay within 186 to 191 °C. Also, the IC50 in the data set with HCV replicon (read-out: Replicon IC5Os μM) lay within 0.5 to 2 µM.
For `CCn1c(C#Cc2cccc(NC(=O)C3CCC3)c2)c(C#N)c2ccc(OC)cc21` [Compound 213] the same measures were 165 to 168 °C and 0.5 to 2 µM.
For `CCn1c(NC(=O)C2CC2)c(C#N)c2ccc(OC)cc21` [Compound 216] the same measures were 261 °C and 0.5 to 2 µM.
For `CCn1c(NC(=O)OCC(C)C)c(C#N)c2ccc(OC)cc21` [Compound 217] the same measures were 272 to 273 °C and less than 0.5 µM.
Molecule `CCn1c(C#Cc2cccc(NC=O)c2)c(C#N)c2ccc(OC)cc21` [Compound 218] showed a melting point of 174 to 177 °C. Moreover, the IC50 in the data set on HCV replicon (read-out: Replicon IC5Os μM) was in the range of 0.5 to 2 µM.
Consider `CCn1c(C#Cc2cccc(NC(=O)COC)c2)c(C#N)c2ccc(OC)cc21` [Compound 219], for which the melting point is 145 to 149 °C. In addition, the IC50 in the data set with HCV replicon (read-out: Replicon IC5Os μM) was in the range of 0.5 to 2 µM.
In the same order, the values of `CCn1c(C#Cc2cccc(NC(=O)NCCCl)c2)c(C#N)c2ccc(OC)cc21` [Compound 221] are 195 to 200 °C and 0.5 to 2 µM.
In turn, `COc1ccc2c(C#N)c(C#Cc3ccc(C(C)(C)C)cc3)[nH]c2c1` [Compound 233] yielded a melting point of 232 to 234 °C. Besides, the IC50 in the data set on HCV replicon (read-out: Replicon IC5Os μM) lay in the range of 0.5 to 2 µM.
For `CCn1c(-c2ccc(NS(C)(=O)=O)cc2)c(C#N)c2cc(OC)ccc21` [Compound 243] the same measures were 194 to 198 °C and less than 0.5 µM.
Molecule `CCCS(=O)(=O)Nc1ccc(-c2c(C#N)c3ccc(OC)cc3n2CC)cc1` [Compound 251] showed a melting point of 186 to 187 °C. Moreover, the IC50 in the data set on HCV replicon (read-out: Replicon IC5Os μM) lay in the range of 0.5 to 2 µM.
In the same order, the values of `CCn1c(-c2ccc(NS(=O)(=O)CCCCl)cc2)c(C#N)c2ccc(OC)cc21` [Compound 252] are 176 to 177 °C and 0.5 to 2 µM.
Consider `CCn1c(-c2ccc(OCCNS(=O)(=O)CC)cc2)c(C#N)c2ccc(OC)cc21` [Compound 269], for which the melting point was in the range of 153 to 158 °C. Further, in the data set with HCV replicon (read-out: Replicon IC5Os μM), the IC50 was 0.5 to 2 µM.
Molecule `CCn1c(-c2cccc(S(=O)(=O)NC)c2)c(C#N)c2ccc(OC)cc21` [Compound 331] displayed a melting point of 160 to 165 °C. For the same molecule, the IC50 with HCV replicon (read-out: Replicon IC5Os) was in the range of 0.5 to 2 µM.
In the same order, the values of `CCn1c(-c2ccc3c(c2)oc(=O)n3C)c(C#N)c2ccc(OC)cc21` [Compound 341] are 227 to 230 °C and 0.5 to 2 µM.
In the same order, the values of `CCS(=O)(=O)Nc1ccc(-c2c(C#N)c3ccc(OC)cc3n2C)cc1` [Compound 345] are 191 to 192 °C and 0.5 to 2 µM.
In the same order, the values of `CCCn1c(-c2ccc(NS(C)(=O)=O)cc2)c(C#N)c2ccc(OC)cc21` [Compound 346] are 178 to 180 °C and less than 0.5 µM.
On to `CCn1c(-c2ccc(NS(=O)(=O)CC)cc2)c(C#N)c2ccc(C(F)(F)F)cc21` [Compound 366], for which the melting point lay in the range of 223 to 225 °C. The IC50 with HCV replicon (read-out: Replicon IC5Os) was less than 0.5 µM.
In the same order, the values of `CCCS(=O)(=O)Nc1ccc(-c2c(C#N)c3ccc(C(F)(F)F)cc3n2CC)cc1` [Compound 367] are 225 to 227 °C and 0.5 to 2 µM.
For `CCn1c(-c2ccc(NS(=O)(=O)CCCCl)cc2)c(C#N)c2ccc(C(F)(F)F)cc21` [Compound 369] the same measures were 174 to 177 °C and 0.5 to 2 µM.
In the same order, the values of `CCn1c(-c2ccc(S(N)(=O)=O)cc2)c(C#N)c2cc(Cl)ccc21` [Compound 408] are 231 to 235 °C and 0.5 to 2 µM.
`CCOc1ccc2c(C#N)c(-c3ccc(NS(C)(=O)=O)cc3)n(C)c2c1` [Compound 413] displayed a melting point of 184 to 185 °C. Moreover, in the data set on HCV replicon (read-out: Replicon IC5Os), the IC50 was less than 0.5 µM.
For `CCOc1ccc2c(C#N)c(-c3ccc(NS(C)(=O)=O)cc3)n(CC)c2c1` [Compound 415] the same measures were 163 to 165 °C and less than 0.5 µM.
For `CCOc1ccc2c(C#N)c(-c3ccc(NS(=O)(=O)CC)cc3)n(CC)c2c1` [Compound 416] the same measures were 173 to 175 °C and less than 0.5 µM.
The molecule `CCCn1c(-c2ccc(NS(=O)(=O)CC)cc2)c(C#N)c2ccc(OCC)cc21` [Compound 418] had a melting point of 183 to 184 °C. Besides, in the data set on HCV replicon (read-out: Replicon IC5Os), the IC50 was less than 0.5 µM.
For `CCn1c(-c2ccc(NC(C)=O)cc2)c(C#N)c2ccc(C(F)(F)F)cc21` [Compound 420] the same measures were 241 to 243 °C and 0.5 to 2 µM.
In the same order, the values of `CCC(=O)Nc1ccc(-c2c(C#N)c3ccc(C(F)(F)F)cc3n2CC)cc1` [Compound 422] are 259 to 261 °C and 0.5 to 2 µM.
In the same order, the values of `CCn1c(-c2ccc(S(=O)(=O)NC)cc2)c(C#N)c2cc(Cl)ccc21` [Compound 430] are 180 to 186 °C and 0.5 to 2 µM.
For the molecule `CCn1c(-c2ccc(N/C(C)=C/C#N)cc2)c(C#N)c2ccc(OC)cc21` [Compound 456], the melting point lay in the range of 157 to 159 °C. Also, the IC50 in the data set on HCV replicon (read-out: Replicon IC5Os) was in the range of 0.5 to 2 µM.
In the same order, the values of `CCn1c(-c2ccc(S(N)(=O)=O)cc2)c(C#N)c2cc(-c3cccc(OC)c3)ccc21` [Compound 461] are 200 to 205 °C and less than 0.5 µM.
In the same order, the values of `CCn1c(-c2ccc(S(=O)(=O)NC)cc2)c(C#N)c2cc(-c3cccc(OC)c3)ccc21` [Compound 462] are 135 to 140 °C and less than 0.5 µM.
For `CCOc1ccc2c(C#N)c(-c3ccc(NS(=O)(=O)CC)cc3)n(CC(C)C)c2c1` [Compound 470] the same measures were 178 to 180 °C and less than 0.5 µM.
